Common to all, as to type: biochemical
The target in one experiment is T1, CDK9/CyclinT (Homo sapiens, UniProt P50750).
T1 construct: host or cells: Sf9 insect cells (baculovirus)
Nature of the experiment: ADP-Glo kinase inhibition assay, CDK9/CyclinT. Particulars: percentage of maximum activity of the DMSO control, mean n = 2, 10 µM ATP, read-out: Residual activity CDK9/CyclinT; for remaining activity at 1 µM: 1 μM compound; for remaining activity at 10 µM: 10 μM compound. How it is done: (§1) Kinase enzymatic activities were assayed in 384-well plates using the ADP-Glo^TM assay kit (Promega, Madison, WI, USA) according to the recommendations of the manufacturer. This luminescent ADP detection assay was described by Zegzouti and co-workers and provides a homogeneous and high-throughput screening method to measure kinase activity by quantifying the amount of ADP produced during a kinase reaction. Briefly, the reactions were carried out in a final volume of 6 µL for 30 min at 30 °C in an appropriate kinase buffer (10 mM MgCl2, 1 mM EGTA, 1 mM DTT, 25 mM Tris-HCl pH 7.5, 50 µg/mL heparin), with peptide or protein as substrate in the presence of 10 µM ATP. Peptide substrates were obtained from ProteoGenix (Schiltigheim, France) or Sigma for Histone H1, Poly (L-glutamic acid–L-tyrosine) sodium salt, Casein and MBP. After that, 6 µL of ADP-Glo^TM Kinase Reagent was added to stop the kinase reaction. After an incubation time of 50 min at room temperature (rt), 12 µL of Kinase Detection Reagent was added for one hour at rt. The transmitted signal was measured using the Envision (PerkinElmer, Waltham, MA, USA) microplate luminometer and expressed as Relative Light Units (RLUs). Kinase activities are expressed as percentages of remaining kinase activities detected after treatment with 1 or 10 µM of the tested compounds. The maximum kinase activity was measured in the absence of inhibitor but with an equivalent dose of DMSO (solvent of the tested compounds).
(§2) 3. Kinase inhibition assays
(§3) Kinase enzymatic activities were assayed in 384-well plates using the ADP-GloTM assay kit (Promega, Madison, WI) according to the recommendations of the manufacturer. This luminescent ADP detection assay was described by Zegzouti and co-workers and provides a homogeneous and high-throughput screening method to measure kinase activity by quantifying the amount of ADP produced during a kinase reaction. Briefly, the reactions were carried out in a final volume of 6 µl for 30 min at 30°C in appropriate kinase buffer (10 mM MgCl2, 1 mM EGTA, 1 mM DTT, 25 mM Tris-HCl pH 7.5, 50 µg/mL heparin), with peptide or protein as substrate in the presence of 10 µM ATP. Peptide substrates were obtained from ProteoGenix (Schiltigheim, France) or Sigma for Histone H1, Poly (L-glutamic acid – L-tyrosine) sodium salt, Casein and MBP. After that, 6 µL of ADP-GloTM Kinase Reagent was added to stop the kinase reaction. After an incubation time of 50 min at room temperature (rt), 12 µL of Kinase Detection Reagent was added for 1 h at rt. The transmitted signal was measured using the Envision (PerkinElmer, Waltham, MA) microplate luminometer and expressed in Relative Light Unit (RLU). Kinase activities are expressed in percentages of remaining kinase activities detected after treatment with 1 or 10 µM of the tested compounds. The maximal kinase activity is measured in the absence of inhibitor but with an equivalent dose of DMSO (solvent of the tested compounds).
(§4) Table. Human protein kinases tested in the panel: CDK9, HASPIN, PIM1, GSK3b, CK1ε, JAK3, CLK1 […]
(§5) Protein Kinase Enzyme Description Substrate1
(§6) (Family) (Working concentration)
(§7) CDK9/CyclinT Human, recombinant, expressed by Peptide:
(§8) (CMGC) baculovirus in Sf9 insect cells […]
(§9) CLK1 Human, recombinant, expressed by Peptide: […]
(§10) (CMGC) baculovirus in Sf9 insect cells (57.3µM)
(§11) DYRK1A Human, recombinant, expressed by Peptide: […]
(§12) (CMGC) baculovirus in Sf9 insect cells (10.7µM)
(§13) PIM1 Human proto-oncogene, recombinant, Peptide: […]
(§14) (CAMK) expressed in bacteria (630 µM)
(§15) GSK3 Human, recombinant, expressed by Peptide:
(§16) (CMGC) baculovirus in Sf9 insect cells […]pEDEEE 3
(§17) HASPIN Human, kinase domain, amino acids 470 to Histone H3 peptide (1-21):
(§18) (Other) 798, recombinant, expressed in bacteria […] (8µM)
(§19) CK1ε Human, recombinant, expressed by Peptide: […]pAYSITA 2
(§20) (CK1) baculovirus in Sf9 insect cells (170µM)
(§21) JAK3 Human, recombinant, expressed by Peptide: […]
(§22) (TK) baculovirus in Sf9 insect cells (94µM) […]
(In ADP-Glo the light output rises with the ADP produced.)

Another experiment deals with T2, Haspin (Homo sapiens, UniProt Q8TF76).
T2 construct: amino acids 470 to Histone H3 peptide (1-21): (Other) 798, recombinant; host or cells: bacteria
T2 sequence (Q8TF76 470-798): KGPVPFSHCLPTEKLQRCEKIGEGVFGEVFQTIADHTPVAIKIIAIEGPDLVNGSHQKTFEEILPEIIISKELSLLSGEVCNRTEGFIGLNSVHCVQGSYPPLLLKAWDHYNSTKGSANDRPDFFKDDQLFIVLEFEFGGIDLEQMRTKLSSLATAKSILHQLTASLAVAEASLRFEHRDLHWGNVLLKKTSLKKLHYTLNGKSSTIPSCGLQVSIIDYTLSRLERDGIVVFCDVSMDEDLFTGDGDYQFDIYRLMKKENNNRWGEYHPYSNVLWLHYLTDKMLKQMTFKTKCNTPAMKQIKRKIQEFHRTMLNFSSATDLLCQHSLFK
Briefly: ADP-Glo kinase inhibition assay, Haspin. Particulars: percentage of maximum activity of the DMSO control, mean n = 2, 10 µM ATP, read-out: Residual activity Haspin; for remaining activity at 1 µM: 1 μM compound; for remaining activity at 10 µM: 10 μM compound. How it is done:
as §1, §2, §3, §4, §5, §6, §7, §8, §9, §10, §11, §12, §13, §14, §15, §16, §17, §18, §19, §20, §21, §22

A further experiment has as its target T3, CLK1 (Homo sapiens, UniProt P49759).
T3 construct: host or cells: Sf9 insect cells (baculovirus)
Nature of the experiment: ADP-Glo kinase inhibition assay, CLK1. To be noted: percentage of maximum activity of the DMSO control, mean n = 2, 10 µM ATP, read-out: Residual activity CLK1; for remaining activity at 1 µM: 1 μM compound; for remaining activity at 10 µM: 10 μM compound. Here is the method: as §1, §2, §3, §4
(§23) 1 Peptide substrates were obtained from ProteoGenix (Schiltigheim, France) or Sigma for Histone H1, Poly (L-glutamic acid – L-tyrosine) sodium salt, Casein and MBP; 2 “Sp” stands for phosphorylated serine.
(§24) Controls inhibitors: To validate each kinase assay, the following model inhibitors were used under the same conditions than the tested compounds: Staurosporine from Streptomyces sp.

A further experiment has as its target T4, DYRK1A (Homo sapiens, UniProt Q13627).
T4 construct: host or cells: Sf9 insect cells (baculovirus)
Nature of the experiment: ADP-Glo kinase inhibition assay, DYRK1A. Particulars: percentage of maximum activity of the DMSO control, mean n = 2, 10 µM ATP, read-out: Residual activity DYRK1A; for remaining activity at 1 µM: 1 μM compound; for remaining activity at 10 µM: 10 μM compound. Here is the method: as §1, §2, §3, §4, §23, §24

T3 sequence (P49759 whole entry): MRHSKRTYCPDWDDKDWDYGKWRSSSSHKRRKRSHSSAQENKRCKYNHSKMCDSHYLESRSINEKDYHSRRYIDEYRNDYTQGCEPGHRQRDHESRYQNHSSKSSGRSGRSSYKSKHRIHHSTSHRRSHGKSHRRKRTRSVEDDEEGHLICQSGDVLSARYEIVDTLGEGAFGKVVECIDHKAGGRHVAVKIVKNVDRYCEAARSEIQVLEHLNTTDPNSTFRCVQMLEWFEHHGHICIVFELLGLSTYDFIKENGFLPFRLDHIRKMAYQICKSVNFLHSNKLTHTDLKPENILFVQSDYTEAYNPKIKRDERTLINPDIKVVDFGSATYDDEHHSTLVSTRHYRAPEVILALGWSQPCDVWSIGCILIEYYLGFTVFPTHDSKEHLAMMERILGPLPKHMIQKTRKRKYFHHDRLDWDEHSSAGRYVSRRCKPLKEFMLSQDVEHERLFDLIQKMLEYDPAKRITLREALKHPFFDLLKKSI
T1 sequence (P50750 whole entry): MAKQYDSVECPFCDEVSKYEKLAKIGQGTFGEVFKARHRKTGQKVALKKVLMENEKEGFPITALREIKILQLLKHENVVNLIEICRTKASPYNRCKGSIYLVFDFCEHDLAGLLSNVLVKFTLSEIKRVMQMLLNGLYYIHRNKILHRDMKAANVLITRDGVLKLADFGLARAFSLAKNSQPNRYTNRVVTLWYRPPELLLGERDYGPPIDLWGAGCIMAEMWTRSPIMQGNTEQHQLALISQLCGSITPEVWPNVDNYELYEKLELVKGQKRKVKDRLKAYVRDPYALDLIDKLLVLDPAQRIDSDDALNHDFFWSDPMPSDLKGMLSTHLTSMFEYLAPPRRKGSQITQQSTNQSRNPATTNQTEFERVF
T1 sequence (O60563 whole entry partner): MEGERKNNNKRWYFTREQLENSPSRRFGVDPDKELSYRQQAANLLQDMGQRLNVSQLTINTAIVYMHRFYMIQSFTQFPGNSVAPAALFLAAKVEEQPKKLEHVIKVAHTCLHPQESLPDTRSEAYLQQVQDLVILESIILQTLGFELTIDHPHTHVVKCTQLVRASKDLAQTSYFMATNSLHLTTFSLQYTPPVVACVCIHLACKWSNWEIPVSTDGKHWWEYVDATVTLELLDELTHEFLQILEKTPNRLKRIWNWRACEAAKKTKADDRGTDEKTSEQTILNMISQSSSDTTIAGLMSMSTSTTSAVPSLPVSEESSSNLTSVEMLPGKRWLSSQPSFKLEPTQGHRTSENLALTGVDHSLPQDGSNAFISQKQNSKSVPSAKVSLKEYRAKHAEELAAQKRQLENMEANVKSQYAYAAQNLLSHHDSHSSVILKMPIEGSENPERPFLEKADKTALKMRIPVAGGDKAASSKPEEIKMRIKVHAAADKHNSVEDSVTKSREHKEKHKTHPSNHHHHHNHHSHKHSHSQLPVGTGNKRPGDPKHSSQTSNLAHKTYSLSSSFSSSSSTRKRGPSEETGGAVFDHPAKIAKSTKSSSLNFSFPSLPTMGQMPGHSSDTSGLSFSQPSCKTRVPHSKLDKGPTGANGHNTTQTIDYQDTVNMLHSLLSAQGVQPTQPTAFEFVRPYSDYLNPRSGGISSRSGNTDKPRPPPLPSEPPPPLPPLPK

For `COC(=N)c1nc2cc3c(=O)n(Cc4ccccc4)cnc3cc2s1` [Compound 6a, Methyl 7-benzyl-8-oxo-7,8-dihydrothiazolo[4,5-g]quinazoline-2-carbimidate], the remaining activity at 1 µM at CDK9/CyclinT stood at 103%; at Haspin, 89%; on CLK1, 97%; at DYRK1A, 100%. Further, the remaining activity at 10 µM on CDK9/CyclinT amounted to 101%; at Haspin it was 105%; at CLK1, 96%; at DYRK1A, 103%.
With `COC(=N)c1nc2cc3ncnc(Nc4ccc(OC)cc4F)c3cc2s1` [Compound 15b, Methyl 8-[(2-fluoro-4-methoxyphenyl)amino]thiazolo[5,4-g]quinazoline-2-carbimidate], the remaining activity at 1 µM at CDK9/CyclinT is 98%; on Haspin it was 80%; on CLK1, 102%; at DYRK1A, 95%. The remaining activity at 10 µM amounted to 110% on CDK9/CyclinT, 88% on Haspin, 105% on CLK1 and 101% on DYRK1A.
In the case of `COC(=N)c1nc2c(ccc3c(=O)n(Cc4ccccc4)cnc32)s1` [Compound 6c, Methyl 7-benzyl-6-oxo-6,7-dihydrothiazolo[5,4-h]quinazoline-2-carbimidate], the remaining activity at 1 µM on CDK9/CyclinT turned out to be 105%; at Haspin, 39%; at CLK1 it was 95%; at DYRK1A, 100%. Also, the remaining activity at 10 µM at CDK9/CyclinT was 101%; at Haspin it was 12%; on CLK1 it was 84%; at DYRK1A, 68%.
For the compound `COC(=N)c1nc2cc3ncn(Cc4ccccc4)c(=O)c3cc2s1` [Compound 6b, Methyl 7-benzyl-8-oxo-7,8-dihydrothiazolo[5,4-g]quinazoline-2-carbimidate], the remaining activity at 1 µM was 107% on CDK9/CyclinT, 95% at Haspin, 100% on CLK1 and 103% on DYRK1A. Further, the remaining activity at 10 µM was determined as 104% at CDK9/CyclinT, 82% at Haspin, 102% on CLK1 and 109% on DYRK1A.
For `COC(=N)c1nc2cc3c(Nc4ccc(OC)cc4F)ncnc3cc2s1` [Compound 15a, Methyl 8-[(2-fluoro-4-methoxyphenyl)amino]thiazolo[4,5-g]quinazoline-2-carbimidate], the remaining activity at 1 µM on CDK9/CyclinT amounted to 101%; on Haspin it was 83%; at CLK1 it was 89%; at DYRK1A, 72%. Besides, the remaining activity at 10 µM on CDK9/CyclinT was determined as 100%; on Haspin, 66%; on CLK1, 52%; at DYRK1A it was 27%.
With `COC(=N)c1nc2ccc3c(=O)n(Cc4ccccc4)cnc3c2s1` [Compound 6d, Methyl 7-benzyl-6-oxo-6,7-dihydrothiazolo[4,5-h]quinazoline-2-carbimidate], the remaining activity at 1 µM was determined as 106% on CDK9/CyclinT, 82% at Haspin, 89% on CLK1 and 83% on DYRK1A. For the same compound, the remaining activity at 10 µM at CDK9/CyclinT stood at 94%; at Haspin, 51%; on CLK1, 73%; at DYRK1A, 63%.
Turning to `COC(=N)c1nc2ccc3ncnc(Nc4ccc(OC)cc4F)c3c2s1` [Compound II, methyl 9-[(2-fluoro-4-methoxyphenyl)amino]thiazolo[5,4-f]quinazoline-2-carbimidate, reference compound], the results for the remaining activity at 1 µM at CDK9/CyclinT and at Haspin were 86% and 31%, respectively. For the same compound, the remaining activity at 10 µM worked out at 59% on CDK9/CyclinT and 8% at Haspin.
Regarding `COC(=N)c1nc2ccc3ncn(Cc4ccccc4)c(=O)c3c2s1` [Compound I, methyl 8-benzyl-9-oxo-8,9-dihydrothiazolo[5,4-f]quinazoline-2-carbimidate, reference compound], the remaining activity at 1 µM worked out at 91% on CDK9/CyclinT, 60% on Haspin, 75% on CLK1 and 62% on DYRK1A. In addition, the remaining activity at 10 µM worked out at 41% on CDK9/CyclinT, 45% on Haspin, 27% on CLK1 and 21% at DYRK1A.
